Results: patent publication US11938190B2, “Herbal extracts for treatment of herpesvirus infections” (KAMEDIS LTD., priority 2018, dated 2024)
In brackets after ≈: the same amount, converted by molar mass.

Test system: Herpes Simplex Virus type 1 (HSV-1)
Assay: microbe, parasite or virus in culture
Assay type: cell-based
Details: Human alphaherpesvirus 1; Example 2; acyclovir dose-response curve; EYFP-HSV-1, Vero cells

Question: `Nc1nc2c(ncn2COCCO)c(=O)[nH]1` [Acyclovir] was tested. Which IC50 did it give?
Answer: Its IC50 is 0.126 ± 0.014 mg/L (≈ 0.559 µM).
